Here are results for one compound from article PMC4667193 (Scientific Reports, 2015).

The target in test [1] is muscarinic cholinergic receptors. To be noted: [^3H]QNB, rat hippocampus; cited from earlier work.
Test [2] relates to rat primary hippocampal cell culture. The test can be described thus: total [^3H]inositol phosphate accumulation in hippocampal cells. The test is classed as cell-based. The note with it: 10^−8 to 10^−3 M. The protocol: Hippocampal cells (1 × 10^6 cells/well) were allowed to equilibrate for 10 minutes with a nutrient solution of the following composition (mM): NaCl 157.00; KCl 5.60; CaCl2 0.27; MgCl2 3.00; NaHCO3 1.80; glucose 5.50 (pH 7.0–7.2) at 37 °C under constant shaking. Cells were incubated with 5 μCi of myo[^3H]inositol (specific activity 18.0 Ci/mmol) for 80 minutes, and lithium chloride (10 mM) for additional 30 minutes. Afterwards, the cells were incubated in the absence (basal level) and in the presence of carbachol (positive control) and AEME (10^−8 to 10^−3 M) for 10 minutes. Cells were removed from the plate using a 0.1 M NaOH solution and washed three times with nutrient solution, transferred to 2 mL of methanol:chloroform (2:1 v-v) at 4 °C and homogenized with a Ultra-Turrax T25 homogenizer at 9500 rpm. Chloroform (0.62 mL) and H2O (0.93 mL) were added to the homogenate, and the solution was centrifuged for 5 minutes at 1,000× g to separate aqueous and organic phases. Total [^3H]inositol phosphate was measured as previously described by Ascoli et al.[45] with slight modification. The aqueous layer was neutralized with 0.1 M HCl and then mixed with 1 mL anion-exchange resin (Dowex AG-X8, formate form, 200–400 mesh), allowed to equilibrate for 30 minutes at room temperature, under agitation, and centrifugated at 1,000× g, for 5 minutes at 4 °C. The resin was then washed sequentially, with 10 mM myo-inositol (2 mL) and 5 mM sodium tetraborate/60 mM sodium formate (2 mL). The resin was incubated for 30 minutes at room temperature with 2 mL of 0.1 M formic acid/1 M ammonium formate). The total [^3H]inositol phosphate was eluted and placed in scintillation vials containing OptiPhase HiSafe 3. The amount of radioactivity was determined in scintillation β-counter (LS 6500 IC, Beckman). Total [^3H]inositol phosphate was expressed as percentage above basal level.

In a further test the target is T1, Rat M1 mAChR (Rattus norvegicus, UniProt P08482).
T1 construct: host or cells: CHO (CHO-K1) cells
T1 sequence (P08482 1-460): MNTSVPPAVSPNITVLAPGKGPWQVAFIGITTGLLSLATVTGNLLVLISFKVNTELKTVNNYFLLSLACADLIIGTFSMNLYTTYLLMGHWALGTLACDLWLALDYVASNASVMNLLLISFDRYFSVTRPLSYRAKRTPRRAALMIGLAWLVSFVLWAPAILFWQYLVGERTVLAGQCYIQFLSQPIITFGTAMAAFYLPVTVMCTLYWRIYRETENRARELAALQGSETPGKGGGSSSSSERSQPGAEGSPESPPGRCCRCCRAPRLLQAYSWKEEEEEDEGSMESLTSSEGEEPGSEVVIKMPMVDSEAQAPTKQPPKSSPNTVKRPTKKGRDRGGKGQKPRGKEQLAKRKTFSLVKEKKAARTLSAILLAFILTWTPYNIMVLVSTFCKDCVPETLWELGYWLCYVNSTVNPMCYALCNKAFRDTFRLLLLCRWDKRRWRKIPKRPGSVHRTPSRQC
The test can be described thus: [^3H]NMS radioligand competition binding, CHO cell membranes. The note with it: rat M1, 0.1 nM [^3H]NMS. The method, then:
(§1) Membranes were prepared from CHO cells stably expressing individual rat mAChRs (rM1 to rM5). Briefly, media was removed, cells were washed with PBS and harvested with PBS into a centrifuge bottle. Cells were spun at 2,000 g for 5 minutes at 4 °C. After harvesting, the supernatant was gently discarded and cold membrane preparation buffer [Hanks’ balanced salt solution (HBSS; Invitrogen), 4.17 mM sodium bicarbonate, 20 mM HEPES and 0.5 mM EDTA] was added (10 mL/dish). Cells were then homogenized for 5–10 seconds with a rotary homogenizer (Polytron®) and centrifuged at 20,000g for 20 minutes at 4 °C. The homogenization/centrifugation cycle was repeated twice. After the last centrifugation, the supernatant was gently discarded and the pellet was resuspended in cold membrane preparation buffer (up to 2 mL). All binding reactions were performed in a total volume of 1 mL containing 25 μg of membrane protein. […] The equilibrium binding was terminated by rapid filtration using a 96-well harvester (Brandel®). Filters were washed three times with ice-cold harvesting buffer and were dried overnight. Radioactivity was counted using a TopCount NXT (PerkinElmer®) and counts were normalized to the maximal specific binding in the presence of vehicle. Saturation and competition binding data were analyzed using a weighted nonlinear least-squares interactive curve-fitting program GraphPad Prism (GraphPad Prism Software version 5.0). A mathematical model for one or two binding sites was applied. The equilibrium dissociation constant (KD) and the binding capacity (Bmax) were determined. The inhibition constant (Ki) was determined from competition curves using the Cheng and Prusoff equation[52].
On the technique in general: Displacement assays read how much labelled ligand stays bound in the presence of the test substance.

Another test concerns the target T2, Rat M3 mAChR (Rattus norvegicus, UniProt P08483).
T2 construct: host or cells: CHO (CHO-K1) cells
The description is as above. The note with it: rat M3, 0.1 nM [^3H]NMS. The method, then: as §1

In another test the target is T3, Rat M5 mAChR (Rattus norvegicus, UniProt P08911).
T3 construct: host or cells: CHO (CHO-K1) cells
T3 sequence (P08911 1-531): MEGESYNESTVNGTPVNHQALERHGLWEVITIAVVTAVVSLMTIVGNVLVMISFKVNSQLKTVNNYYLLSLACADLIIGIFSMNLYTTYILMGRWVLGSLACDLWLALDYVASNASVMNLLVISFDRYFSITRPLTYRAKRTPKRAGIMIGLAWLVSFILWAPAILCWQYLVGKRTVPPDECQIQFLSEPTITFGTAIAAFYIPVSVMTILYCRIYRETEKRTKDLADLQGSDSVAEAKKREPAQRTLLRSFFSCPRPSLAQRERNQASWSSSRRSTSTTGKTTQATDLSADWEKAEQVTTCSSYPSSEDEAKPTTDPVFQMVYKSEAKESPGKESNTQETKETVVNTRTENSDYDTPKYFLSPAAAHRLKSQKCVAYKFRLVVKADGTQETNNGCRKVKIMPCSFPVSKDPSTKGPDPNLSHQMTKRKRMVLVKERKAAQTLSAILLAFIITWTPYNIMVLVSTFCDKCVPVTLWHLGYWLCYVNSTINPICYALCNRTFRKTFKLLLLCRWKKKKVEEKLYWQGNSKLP
The test is described as above. To be noted: rat M5, 0.1 nM [^3H]NMS. The protocol:
as §1

T2 sequence (P08483 whole entry): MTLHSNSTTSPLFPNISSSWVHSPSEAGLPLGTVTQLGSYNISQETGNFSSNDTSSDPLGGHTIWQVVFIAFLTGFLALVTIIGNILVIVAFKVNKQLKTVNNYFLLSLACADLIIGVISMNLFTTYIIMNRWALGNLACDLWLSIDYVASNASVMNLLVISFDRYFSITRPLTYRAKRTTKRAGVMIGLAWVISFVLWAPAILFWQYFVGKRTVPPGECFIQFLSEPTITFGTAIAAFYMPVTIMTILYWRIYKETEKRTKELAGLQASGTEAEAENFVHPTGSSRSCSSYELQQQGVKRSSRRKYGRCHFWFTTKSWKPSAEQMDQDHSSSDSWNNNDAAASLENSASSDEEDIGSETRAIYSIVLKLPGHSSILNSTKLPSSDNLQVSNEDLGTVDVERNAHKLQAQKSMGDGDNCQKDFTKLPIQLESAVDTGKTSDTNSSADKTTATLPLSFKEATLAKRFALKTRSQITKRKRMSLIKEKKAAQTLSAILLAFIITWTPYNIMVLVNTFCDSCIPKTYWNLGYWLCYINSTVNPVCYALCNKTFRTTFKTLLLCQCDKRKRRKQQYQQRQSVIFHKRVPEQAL

In general, pKi refers to the negative decadic logarithm of the Ki, by convention in mol/L. Broadly, the Ki is a dissociation constant, usually derived from enzyme kinetics or from competition with a known ligand. Take `COC(=O)C1=CC[C@@H]2CC[C@H]1N2C` [AEME, anhydroecgonine methyl ester]: the pKi in test [1] is 4.15 ± 0.15. For the same compound, the “effect on total [^3H]inositol phosphate” value in test [2] was “concentration-dependent increase”. Besides, the “concentration giving maximum inositol phosphate accumulation” value in test [2] (10 minutes) is given as 10^−5 M. The Ki on Rat M1 mAChR was found to be 25.7 µM; on Rat M3 mAChR it was 33.9 µM; on Rat M5 mAChR, 29.5 µM.
